Literature values in US20170119742A1, “MEDICAMENT FOR PREVENTING AND/OR TREATING STRESS DISEASES” (ONO PHARMACEUTICAL CO., LTD., priority 2014, published 2017).

Target: brain NK1 receptors (Homo sapiens, UniProt P25103)
Settings: Non-Patent Document 5; cited from earlier work

Sequence of brain NK1 receptors (P25103 whole entry): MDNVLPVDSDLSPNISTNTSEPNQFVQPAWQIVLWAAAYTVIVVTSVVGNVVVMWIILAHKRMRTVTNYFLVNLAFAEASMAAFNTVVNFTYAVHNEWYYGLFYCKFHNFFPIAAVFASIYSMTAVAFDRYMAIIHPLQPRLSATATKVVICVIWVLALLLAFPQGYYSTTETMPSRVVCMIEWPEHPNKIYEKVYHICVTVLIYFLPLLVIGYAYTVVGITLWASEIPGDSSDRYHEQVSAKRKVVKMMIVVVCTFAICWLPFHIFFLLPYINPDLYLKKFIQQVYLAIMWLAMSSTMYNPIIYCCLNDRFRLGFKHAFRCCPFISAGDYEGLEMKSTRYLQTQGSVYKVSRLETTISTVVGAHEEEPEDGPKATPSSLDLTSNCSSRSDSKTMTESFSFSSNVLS

For `C[C@@H](O[C@H]1OCCN(Cc2n[nH]c(=O)[nH]2)[C@H]1c1ccc(F)cc1)c1cc(C(F)(F)F)cc(C(F)(F)F)c1` [aprepitant], the “brain NK1 receptor occupancy necessary for expressing the efficacy” value is listed as ≥ 90% and the “plasma concentration at 90% or more brain NK1 receptor occupancy” value is listed as ≥ 0.1 µg/mL.
